The record followed here is US20250122219A1 (priority 2023, published 2025).

Usually CC50 stands for the concentration that lowers cell viability or growth by half. A word on the EC50: it is the concentration needed to bring the measured effect to its halfway point.

The nature of data set [1]: Cytotoxicity assay in MT-4 cells. The data set is classed as cell-based. Conditions: human; uninfected MT-4 cells, 5 days incubation, Cell Titer Glo; read-out: MT4 CC50. On the procedure: (§1) Compounds were tested in a high-throughput 384-well assay format for their ability to inhibit the replication of HIV-1 (IIIB) in MT-4 cells. Compounds were serially diluted (1.3) in DMSO on 384-well polypropylene plates and further diluted 200-fold into complete RPMI media (10% FBS, 1% P/S) using the Biotek Micro Flow and Labcyte ECHO acoustic dispenser. Each plate contained up to 8 test compounds, with negative (No Drug Control) and 5 μM AZT positive controls. MT-4 cells were pre-infected with 10 μL of either RPMI (mock-infected) or a fresh 1:250 dilution of HIV-1 IIIB concentrated virus stock. Infected and uninfected MT-4 cells were further diluted in complete RPMI media and added to each plate using a Micro Flow dispenser. After 5 days incubation in a humidified and temperature controlled incubator (37° C.), Cell Titer Glo (Promega) was added to the assay plates and chemiluminescence read using an Envision plate-reader.
Assays were performed as above except uninfected MT-4 cells were added to each well containing test compound. In addition, […] puromycin was added to the last column of each assay plate to assess a base level of cytotoxicity.
A general note: Cellular ATP, detected with luciferase, serves as a proxy for viable cell number.

The test system of a further data set is HIV-1 (IIIB). The experiment in a line: Antiviral assay in MT-4 cells. The data set is classed as cell-based. On the procedure: as §1
Setting [2] is: Human immunodeficiency virus 1, MT4, 120 h, HIV-1 IIIB in MT-4 cells, 5 days incubation, Cell Titer Glo, read-out: MT4 EC50.

Where two headings read alike, the source gives them in different places.

Regarding `COCCOC(=O)Oc1c2n(cc(C(=O)NCc3ccc(F)cc3F)c1=O)[C@@H]1CN(C2=O)[C@@H](C)CC[C@]12CC(OC)=NO2` [Example 1, (3′S,5S,7′R)-10′-((2,4-difluorobenzyl)carbamoyl)-3-methoxy-3′-methyl-1′,11′-dioxo-1′,4′,5′,11′-tetrahydro-3′H,4H,7′H-spiro[isoxazole-5,6′-[2,7]methanopyrido[1,2-a][1],4diazonin]-12′-yl (2-methoxyethyl) carbonate], the 50% cytotoxic concentration (CC50) at 5 days in data set [1] was determined as 10.9 µM. For the same compound, in the data set with HIV-1 (IIIB) (setting [2]), the EC50 worked out at 1.48 nM.
Regarding `COCCOCCOC(=O)Oc1c2n(cc(C(=O)NCc3ccc(F)cc3F)c1=O)[C@@H]1CN(C2=O)[C@@H](C)CC[C@]12CC(OC)=NO2` [Example 2, (3′S,5S,7′R)-1O′-((2,4-difluorobenzyl)carbamoyl)-3-methoxy-3′-methyl-1′,11′-dioxo-1′,4′,5′,11′-tetrahydro-3′H,4H,7′H-spiro[isoxazole-5,6′-[2,7]methanopyrido[1,2-a][1,4]diazonin]-12′-yl (2-(2-methoxyethoxy)ethyl) carbonate], the CC50 at 5 days in data set [1] was found to be 11.5 µM. In addition, the EC50 with HIV-1 (IIIB) (Human immunodeficiency virus 1, IIIB, MT4, 120 h, read-out: MT4 EC50 (nM)) came out at 0.79 nM.
In the case of `COCCOCCOC(=O)OCOc1c2n(cc(C(=O)NCc3ccc(F)cc3F)c1=O)[C@@H]1CN(C2=O)[C@@H](C)CC[C@]12CC(OC)=NO2` [Example 4, (((3′S,5S,7′R)-10′-((2,4-difluorobenzyl)carbamoyl)-3-methoxy-3′-methyl-1′,11′-dioxo-1′,4′,5′,11′-tetrahydro-3′H,4H,7′H-spiro[isoxazole-5,6′-[2,7]methanopyrido[1,2-a][1,4]diazonin]-12′-yl)oxy)methyl (2-(2-methoxyethoxy)ethyl) carbonate], in data set [1], the CC50 at 5 days is at least 50 µM. In the data set on HIV-1 (IIIB) (setting [2]), the EC50 was 15.4 nM.
Taken in the same sequence, the figures for `CCCCCCCCCCCCCCCCCC(=O)Oc1c2n(cc(C(=O)NCc3ccc(F)cc3F)c1=O)[C@@H]1CN(C2=O)[C@@H](C)CC[C@]12CC(OC)=NO2` [Example 6, (3′S,5S,7′R)-10′-((2,4-difluorobenzyl)carbamoyl)-3-methoxy-3′-methyl-1′,11′-dioxo-1′,4′,5′,11′-tetrahydro-3′H,4H,7′H-spiro[isoxazole-5,6′-[2,7]methanopyrido[1,2-a][1,4]diazonin]-12′-yl stearate] were at least 50 µM and 9.48 nM.
Taken in the same sequence, the figures for `CCCCC/C=C\C/C=C\CCCCCCCC(=O)Oc1c2n(cc(C(=O)NCc3ccc(F)cc3F)c1=O)[C@@H]1CN(C2=O)[C@@H](C)CC[C@]12CC(OC)=NO2` [Example 7, (3′S,5S,7′R)-10′-((2,4-difluorobenzyl)carbamoyl)-3-methoxy-3′-methyl-1′,11′-dioxo-1′,4′,5′,11′-tetrahydro-3′H,4H,7′H-spiro[isoxazole-5,6′-[2,7]methanopyrido[1,2-a][1,4]diazonin]-12′-yl (9Z,12Z)-octadeca-9,12-dienoate] were at least 50 µM and 7.46 nM.
In the case of `CO[C@@H](C)COC(=O)OCOc1c2n(cc(C(=O)NCc3ccc(F)cc3F)c1=O)[C@@H]1CN(C2=O)[C@@H](C)CC[C@]12CC(C)=NO2` [Example 219, (((3′S,5S,7′R)-10′-((2,4-difluorobenzyl)carbamoyl)-3,3′-dimethyl-1′,11′-dioxo-1′,4′,5′,11′-tetrahydro-3′H,4H,7′H-spiro[isoxazole-5,6′-[2,7]methanopyrido[1,2-a][1,4]diazonin]-12′-yl)oxy)methyl ((S)-2-methoxypropyl) carbonate], the CC50 at 5 days in data set [1] stood at 33.9 µM.
For `COC1=NO[C@@]2(CC[C@H](C)N3C[C@H]2n2cc(C(=O)NCc4ccc(F)cc4F)c(=O)c(OCOC(=O)OC[C@H](C)OC)c2C3=O)C1` [Example 220, (((3′S,5S,7′R)-10′-((2,4-difluorobenzyl)carbamoyl)-3-methoxy-3′-methyl-1′,11′-dioxo-1′,4′,5′,11′-tetrahydro-3′H,4H,7′H-spiro[isoxazole-5,6′-[2,7]methanopyrido[1,2-a][1,4]diazonin]-12′-yl)oxy)methyl ((S)-2-methoxypropyl) carbonate], the CC50 at 5 days in data set [1] came to 41.6 µM.
